From patent publication US11753403B2, “EIF4E inhibitors and uses thereof” (PIC Therapeutics, Inc., priority 2020, dated 2023)

What follows are compounds tested against Human eIF4E (aa 28-217) / biotin labeled 4G2 peptide (Homo sapiens (Human), UniProt P06730) (assay: Human eIF4E/4G2 binding assay (TR-FRET)). Conditions: Human eIF4E/4G2 TR-FRET binding assay; head says IC50, legend says EC50.
How it was run: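 Refolded His-tagged human eIF4E (aa 28-217), 82.5 nM working stock, preincubated 4 h at RT with compounds (10-point 2-fold series) in NaPi pH 6.5 buffer with DTT and gamma globulin. Biotin-4G2 peptide then added for 20 min, followed by Eu-streptavidin/APC-anti-His for 20 min; TR-FRET 665/615 nm ratio normalized, IC50 fitted.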

Human eIF4E (aa 28-217) / biotin labeled 4G2 peptide, sequence (P06730 28-217): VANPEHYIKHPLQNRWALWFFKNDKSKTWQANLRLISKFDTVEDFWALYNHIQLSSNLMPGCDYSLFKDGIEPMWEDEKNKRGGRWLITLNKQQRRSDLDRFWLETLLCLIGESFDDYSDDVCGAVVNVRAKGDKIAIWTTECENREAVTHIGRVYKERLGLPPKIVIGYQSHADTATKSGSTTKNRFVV

`CC(C)Cc1sc(Nc2ccsc2C(=O)NCCN)nc1-c1ccc(Cl)c(Cl)c1` [I-276, N-(2-aminoethyl)-3-(4-(3,4-dichlorophenyl)-5-isobutylthiazol-2-ylamino)thiophene-2-carboxamide] and `CC(C)c1sc(Nc2ccsc2C(=O)NCCN)nc1-c1ccc(Cl)c(Cl)c1` [I-277] fall in the same range of IC50: 1000 to 10000 nM for the first, 1000 to 10000 nM for the second.

`CC(C)c1sc(Nc2cc(-c3ccccc3)sc2C(=O)O)nc1-c1ccc(Cl)c(Cl)c1` [I-278] and `CC(C)c1sc(Nc2cc(-c3ccccc3)sc2C(=O)O)nc1-c1ccc(Cl)c(C(F)(F)F)c1` [I-279, 3-(4-(4-chloro-3-(trifluoromethyl)phenyl)-5-isopropylthiazol-2-ylamino)-5-phenylthiophene-2-carboxylic acid] cannot be ordered by IC50: no more than 1000 nM for the first, no more than 1000 nM for the second.

`CC(C)c1sc(Nc2c(C(=O)O)sc3ccccc23)nc1-c1ccc(Cl)c(Cl)c1` [I-280] and `CC(C)c1sc(Nc2c(C(=O)O)sc3ccccc23)nc1-c1ccc(Cl)c(C(F)(F)F)c1` [I-281] cannot be ordered by IC50: no more than 1000 nM for the first, no more than 1000 nM for the second.

Going from `CC(C)c1sc(Nc2ncc(-c3ccccn3)cc2C(=O)O)nc1-c1ccc(Cl)c(Cl)c1` [I-282, 6′-(4-(3,4-dichlorophenyl)-5-isopropylthiazol-2-ylamino)-2,3′-bipyridine-5′-carboxylic acid] to `CC(C)c1sc(Nc2ncc(-c3ccccc3)cc2C(=N)N)nc1-c1ccc(Cl)c(Cl)c1` [I-285], the IC50 rises from no more than 1000 nM to greater than 10000 nM. The first is the more potent here.

`CC(C)c1sc(Nc2ncc(C3CC3)cc2C(=O)O)nc1-c1ccc(Cl)c(Cl)c1` [I-283] and `COc1ccc(-c2nc(Nc3ncc(C(F)(F)F)cc3C(=O)O)sc2C(C)C)cc1Cl` [I-326] cannot be ordered by IC50: no more than 1000 nM for the first, no more than 1000 nM for the second.

First: CC(C)c1sc(Nc2ncccc2C(=N)N)nc1-c1ccc(Cl)c(Cl)c1 [I-284, 2-(4-(3,4-dichlorophenyl)-5-isopropylthiazol-2-ylamino)nicotinimidamide]
Second: COc1ccc(-c2nc(Nc3ncc(-c4cccs4)cc3C(=O)O)sc2C(C)C)cc1Cl [I-324]
The IC50 of the first is higher: greater than 10000 nM for the first, no more than 1000 nM for the second.

`CC(C)Cc1sc(Nc2ccccc2C#N)nc1-c1ccc(Cl)c(Cl)c1` [I-286] and `COC(=O)c1ccc(Nc2nc(-c3ccc(Cl)c(Cl)c3)c(CC(C)C)s2)n1C` [I-287] cannot be ordered by IC50: greater than 10000 nM for the first, greater than 10000 nM for the second.

Compared with `COC(=O)c1ccc(Nc2nc(-c3ccc(Cl)c(Cl)c3)c(CC(C)C)s2)o1` [I-288], `COc1ccc(-c2nc(Nc3ncc(C(F)(F)F)cc3C(=O)O)sc2CC(C)C)cc1Cl` [I-325] is lower in IC50: greater than 10000 nM for the first, no more than 1000 nM for the second. The second is the more potent here.

`O=C(O)c1sc(C2CCCC2)cc1Nc1nc(CCc2ccccc2)c(-c2ccc(Cl)c(Cl)c2)s1` [I-309] and `O=C(O)c1sc(C2CCCC2)cc1Nc1nc(Cc2ccccc2)c(-c2ccccc2)s1` [I-310] cannot be ordered by IC50: no more than 1000 nM for the first, no more than 1000 nM for the second.

`CC(C)c1sc(Nc2ncc(C(F)(F)F)cc2C(=O)O)nc1-c1nc2ccccc2s1` [I-320, 2-(4-(benzo[d]thiazol-2-yl)-5-isopropylthiazol-2-ylamino)-5-(trifluoromethyl)nicotinic acid] and `CC(C)c1sc(Nc2ncc(C(F)(F)F)cc2C(=O)O)nc1-c1ccc(Cl)cc1Cl` [I-323, 2-(4-(2,4-dichlorophenyl)-5-isopropylthiazol-2-ylamino)-5-(trifluoromethyl)nicotinic acid] cannot be ordered by IC50: no more than 1000 nM for the first, no more than 1000 nM for the second.

`CC(C)Cc1sc(Nc2ncc(C(F)(F)F)cc2C(=O)O)nc1-c1ccc2ccccc2c1` [I-321] and `CC(C)Cc1sc(Nc2ncc(-c3ccc4ccccc4c3)cc2C(=O)O)nc1-c1ccc(Cl)c(Cl)c1` [I-322, 2-(4-(3,4-dichlorophenyl)-5-isobutylthiazol-2-ylamino)-5-(naphthalen-2-yl)nicotinic acid] cannot be ordered by IC50: no more than 1000 nM for the first, no more than 1000 nM for the second.

`COCCOc1ccc(-c2nc(Nc3ncc(-c4cccs4)cc3C(=O)O)sc2CC(C)C)cc1Cl` [I-327] and `CC(C)Cc1sc(Nc2ncc(-c3cccs3)cc2C(=O)O)nc1-c1ccc(OCCO)c(Cl)c1` [I-331] cannot be ordered by IC50: no more than 1000 nM for the first, no more than 1000 nM for the second.

`CC(C)Cc1sc(Nc2ncc(-c3cccs3)cc2C(=O)O)nc1-c1ccc(OCC(N)=O)c(Cl)c1` [I-329, 2-(4-(4-(2-amino-2-oxoethoxy)-3-chlorophenyl)-5-isobutylthiazol-2-ylamino)-5-(thiophen-2-yl)nicotinic acid] and `CCOc1ccc(-c2nc(Nc3ncc(-c4cccs4)cc3C(=O)O)sc2CC(C)C)cc1Cl` [I-330] cannot be ordered by IC50: no more than 1000 nM for the first, no more than 1000 nM for the second.

`CC(C)Cc1sc(Nc2ncc(-c3cccs3)cc2C(=O)O)nc1-c1ccc(OCC2CC2)c(Cl)c1` [I-332] and `COc1ccc(-c2nc(Nc3ncc(-c4cccs4)cc3C(=O)O)sc2CC(C)C)cc1` [I-333] cannot be ordered by IC50: no more than 1000 nM for the first, no more than 1000 nM for the second.
